Assay results taken from PubChem BioAssay AID1259411 (Chemical Carcinogenesis Research Information System (CCRIS), 2018).
Activity calls are given as the source filed them. No rule for the calls is given here.

Test system: rodent carcinogenicity bioassays, tumor incidence
Experiment: CCRIS carcinogenicity studies
How it was run: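 NCI-built, expert-reviewed records of carcinogenicity and related test outcomes (mutagenicity, tumor promotion/inhibition) compiled from published and report sources, historical span 1985-2011, not updated.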

With Clc1cc2c(cc1Cl)Oc1cc(Cl)c(Cl)cc1O2 the carcinogen call (Species: MOUSE, Strain/Sex: B6C3/FEMALE, Route: GAVAGE, Dose: 0, 2.5, 5 UG/KG IN CORN OIL 1/WK FOR 52 WK (STUDY DURATION: 110 WK), Dose: 0, 2.5, 5 UG/KG IN CORN OIL 1/WK FOR 52 WK (STUDY DURATION: 110 WK), Tumor Site: Type of Lesion: LIVER: HEPATOCELLULAR ADENOMA, HEPTOCELLULAR CARCINOMA) was “active; positive”, the carcinogen call (Species: MOUSE, Strain/Sex: B6C3/FEMALE, Route: INTRAPERITONEAL, Dose: 0, 1, 30, 60, UG/KG 1/WK FOR 5 WK BEGINNING AT 10 D OF AGE (STUDY DURATION: 78 WK), Dose: 0, 1, 30, 60, UG/KG 1/WK FOR 5 WK BEGINNING AT 10 D OF AGE (STUDY DURATION: 78 WK), Tumor Site: Type of Lesion: LIVER: HEPATOCELLULAR ADENOMA, THYMUS: LYMPHOMA) was “active; positive” and the carcinogen call (Species: MOUSE, Strain/Sex: B6C3/MALE, Route: GAVAGE, Dose: 0, 2.5, 5 UG/KG IN CORN OIL 1/WK FOR 52 WK (STUDY DURATION: 110 WK), Dose: 0, 2.5, 5 UG/KG IN CORN OIL 1/WK FOR 52 WK (STUDY DURATION: 110 WK), Tumor Site: Type of Lesion: LIVER: HEPATOCELLULAR CARCINOMA) was “active; positive”. The carcinogen call (Species: MOUSE, Strain/Sex: B6C3/MALE, Route: INTRAPERITONEAL, Dose: 0, 1, 30, 60, UG/KG 1/WK FOR 5 WK BEGINNING AT 10 D OF AGE (STUDY DURATION: 78 WK), Dose: 0, 1, 30, 60, UG/KG 1/WK FOR 5 WK BEGINNING AT 10 D OF AGE (STUDY DURATION: 78 WK), Tumor Site: Type of Lesion: LIVER: HEPATOCELLULAR ADENOMA, HEPTOCELLULAR CARCINOMA, THYMUS: LYMPHOMA) was “active; positive”, the carcinogen call (Species: MOUSE, Strain/Sex: B6C3F1/FEMALE, Route: GAVAGE, Dose: 0, 0.04, 0.2, 2.0 UG/KG SUSPENDED IN 9:1 CORN OIL-ACETONE, Dose: 0, 0.04, 0.2, 2.0 UG/KG SUSPENDED IN 9:1 CORN OIL-ACETONE, Tumor Site: Type of Lesion: LIVER: HEPATOCELLULAR CARCINOMA, THYROID GLAND: FOLLICULAR CELL ADENOMA) was “active; positive” and the carcinogen call (Species: MOUSE, Strain/Sex: B6C3F1/MALE, Route: GAVAGE, Dose: 0, 0.01, 0.05, 0.5 UG/KG SUSPENDED IN 9:1 CORN OIL-ACETONE, Dose: 0, 0.01, 0.05, 0.5 UG/KG SUSPENDED IN 9:1 CORN OIL-ACETONE, Tumor Site: Type of Lesion: LIVER: HEPATOCELLULAR CARCINOMA) was “active; positive”. The carcinogen call (Species: MOUSE, Strain/Sex: SWISS/FEMALE, Route: DERMAL, Dose: 0.005 UG IN ACETONE SUSPENSION 3/WK FOR 99 OR 104 WK (STUDY DURATION: 99 OR 104 WK), Tumor Site: Type of Lesion: INTEGUMENTARY SYSTEM (SUBCUTANEOUS TISSUE): FIBROSARCOMA) was “active; positive”, the carcinogen call (Species: MOUSE, Strain/Sex: SWISS/MALE, Route: DERMAL, Dose: 0.001 UG IN ACETONE SUSPENSION 3/WK FOR 99 OR 104 WK (STUDY DURATION: 99 OR 104 WK), Tumor Site: Type of Lesion: INTEGUMENTARY SYSTEM (SUBCUTANEOUS TISSUE): FIBROSARCOMA) was “equivocal” and the carcinogen call (Species: RAT, Strain/Sex: OSBORNE-MENDEL/FEMALE, Route: GAVAGE, Dose: 0, 0.01, 0.05, 0.5 UG/KG SUSPENDED IN 9:1 CORN OIL-ACETONE, Dose: 0, 0.01, 0.05, 0.5 UG/KG SUSPENDED IN 9:1 CORN OIL-ACETONE, Tumor Site: Type of Lesion: LIVER: NEOPLASTIC NODULE) was “active; positive”. The carcinogen call (Species: RAT, Strain/Sex: OSBORNE-MENDEL/MALE, Route: GAVAGE, Dose: 0, 0.01, 0.05, 0.5 UG/KG SUSPENDED IN 9:1 CORN OIL-ACETONE, Dose: 0, 0.01, 0.05, 0.5 UG/KG SUSPENDED IN 9:1 CORN OIL-ACETONE, Tumor Site: Type of Lesion: THYROID GLAND: FOLLICULAR CELL ADENOMA) was “active; positive”, the carcinogen call (Species: RAT, Strain/Sex: SPRAGUE-DAWLEY/FEMALE, Route: ORAL, Dose: 0, 3, 10, 22, 46, 100 NG/KG/D (STUDY DURATION: 2 YRS), Dose: 0, 3, 10, 22, 46, 100 NG/KG/D (STUDY DURATION: 2 YRS), Tumor Site: Type of Lesion: ORAL MUCOSA: SQUAMOUS CELL CARCINOMA) was “active; positive; highest dose only” and the carcinogen call (Species: Rat, Strain/Sex: Harlan Sprague-Dawley/Female (50 dosed animals), Route: Gavage, Dose: 0, 100 ng/kg (Test material solvent: corn oil: acetone (99:1))) was “inactive; negative”. The carcinogen call (Species: Rat, Strain/Sex: Harlan Sprague-Dawley/Female, Route: Gavage, Dose: 0, 3, 10, 22, 46, 100 ng/kg (Test material solvent: corn oil: acetone (99:1)), Dose: 0, 3, 10, 22, 46, 100 ng/kg (Test material solvent: corn oil: acetone (99:1)), Tumor Site: Type of Lesion: Liver: Hepatocellular adenoma (0/53, 0/54, 0/53, 1/53, 13/53, 2/50), Cholangiocarcinoma (0/53, 0/54, 0/53, 1/53, 4/53, 2) was “active; positive; findings in pancreas and in liver for hepatocholangioma and cholangiom” and the carcinogen call (Species: Rat, Strain/Sex: Spartan Sprague Dawley/Female (50/Experimental Group; 86 Controls), Route: Oral, Dose: 0, 1, 10, 100 ng/kg in food, 7 days a wk for 2 yr, Dose: 0, 1, 10, 100 ng/kg in food, 7 days a wk for 2 yr) was “active; positive”.

With CCC(=O)O[C@H]1CC[C@H]2[C@@H]3CCC4=CC(=O)CC[C@]4(C)[C@H]3CC[C@]12C the carcinogen call (Species: MOUSE, Route: SUBCUTANEOUS IMPLANT, Tumor Site: Type of Lesion: CERVIX, UTERUS) was “active; positive” and the carcinogen call (Species: RAT, Route: SUBCUTANEOUS IMPLANT, Tumor Site: Type of Lesion: PROSTATE GLAND) was “active; positive”.

In the case of COc1ccc(CCN2CCC(Nc3nc4ccccc4n3Cc3ccc(F)cc3)CC2)cc1, the carcinogen call (Species: MOUSE, Strain/Sex: SWISS/FEMALE, Route: ORAL, Dose: 0, 2.5, 10, 40 MG/100 G OF DIET FOR DURATION OF STUDY (STUDY DURATION: 18 Mo), Dose: 0, 2.5, 10, 40 MG/100 G OF DIET FOR DURATION OF STUDY (STUDY DURATION: 18 Mo)) is reported as “inactive; negative”, the carcinogen call (Species: MOUSE, Strain/Sex: SWISS/MALE, Route: ORAL, Dose: 0, 2.5, 10, 40 MG/100 G OF DIET FOR DURATION OF STUDY (STUDY DURATION: 18 MO), Dose: 0, 2.5, 10, 40 MG/100 G OF DIET FOR DURATION OF STUDY (STUDY DURATION: 18 MO)) is reported as “inactive; negative” and the carcinogen call (Species: RAT, Strain/Sex: WISTAR/FEMALE, Route: ORAL, Dose: 0, 5, 20, 80 MG/100 G OF DIET FOR DURATION OF STUDY (STUDY DURATION: 2 YR), Dose: 0, 5, 20, 80 MG/100 G OF DIET FOR DURATION OF STUDY (STUDY DURATION: 2 YR)) is reported as “inactive; negative”. The carcinogen call (Species: RAT, Strain/Sex: WISTAR/MALE, Route: ORAL, Dose: 0, 5, 20, 80 MG/100 G OF DIET FOR DURATION OF STUDY (STUDY DURATION: 2 YR), Dose: 0, 5, 20, 80 MG/100 G OF DIET FOR DURATION OF STUDY (STUDY DURATION: 2 YR)) was “inactive; negative”.
